Target: Glucagon-like peptide 1 receptor (Homo sapiens, UniProt P43220)
Experiment: Agonist activity at human GLP-1R expressed in HEK293 cells assessed as accumulation of cAMP preincubated for 30 mins followed by d2-labeled cAMP addition and anti-cAMP cryptate addition measured after 60 mins by HTRF assay
Format: functional, cell-based

Glucagon-like peptide 1 receptor, sequence (P43220 whole entry): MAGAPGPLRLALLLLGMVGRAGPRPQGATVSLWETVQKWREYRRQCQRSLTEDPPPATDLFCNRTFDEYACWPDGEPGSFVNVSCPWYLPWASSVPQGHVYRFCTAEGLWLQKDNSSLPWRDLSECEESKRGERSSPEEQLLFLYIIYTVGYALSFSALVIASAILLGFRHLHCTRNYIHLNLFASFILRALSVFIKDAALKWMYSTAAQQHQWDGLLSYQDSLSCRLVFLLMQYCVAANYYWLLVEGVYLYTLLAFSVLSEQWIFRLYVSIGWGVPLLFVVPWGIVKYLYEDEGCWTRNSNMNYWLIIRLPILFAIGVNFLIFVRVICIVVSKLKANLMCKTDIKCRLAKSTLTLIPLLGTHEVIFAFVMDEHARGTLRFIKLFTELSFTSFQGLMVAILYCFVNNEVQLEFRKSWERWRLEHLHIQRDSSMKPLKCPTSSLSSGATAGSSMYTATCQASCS

Compared with `O=C(O)c1ccc2nc(CN3CCC(c4cccc(OCc5ccc(C6COC6)cc5OCC(F)(F)F)n4)CC3)n(C[C@@H]3CCO3)c2c1`, `O=C(O)c1ccc2nc(CN3CCC(c4cccc(OCc5ccc(C6COC6)cc5F)n4)CC3)n(CC3(F)CCC3)c2c1` is 14-fold higher in EC50: 2.8 nM for the first, 39 nM for the second.

Going from `O=C(O)c1ccc2nc(CN3CCC(c4cccc(OCc5ccc(C6(O)COC6)cc5)n4)CC3)n(C[C@@H]3CCO3)c2c1` to `O=C(O)c1ccc2nc(CN3CCC(c4cccc(OCc5ccc(C6(F)COC6)cc5)n4)CC3)n(C[C@@H]3CCO3)c2c1`, the EC50 falls from 3.08 nM to 0.08 nM (38-fold).

First: CC(=O)c1ccc(COc2cccc(C3CCN(Cc4nc5ccc(C(=O)O)cc5n4C[C@@H]4CCO4)CC3)n2)c(F)c1
Second: CCC(=O)c1ccc(COc2cccc(C3CCN(Cc4nc5ccc(C(=O)O)cc5n4C[C@@H]4CCO4)CC3)n2)c(F)c1
The EC50 of the first is 1.8-fold lower: 0.54 nM for the first, 0.95 nM for the second. The first is the more potent here.

First: CN1CCC(C(=O)c2ccc(COc3cccc(C4CCN(Cc5nc6ccc(C(=O)O)cc6n5C[C@@H]5CCO5)CC4)n3)c(F)c2)CC1
Second: O=C(O)c1ccc2nc(CN3CCC(c4cccc(OCC5CCN(C6COC6)CC5)n4)CC3)n(C[C@@H]3CCO3)c2c1
The EC50 of the first is higher: over 1000 nM for the first, 33.2 nM for the second.

Compound `N#CCC1(n2c(CC3CCC(c4cccc(OCc5ccc(C6COC6)cc5F)n4)CC3)nc3ccc(C(=O)O)cc32)CC1` (configuration not stated) has an EC50 of 0.08 nM.

Tested on: not listed separately
Experiment: Metabolic stability in human liver microsomes assessed as half life at […] incubated upto 45 mins in presence of NADPH by LC-MS/MS analysis
Format: ADME, Microsome

`O=C(O)c1ccc2nc(CN3CCC(c4cccc(OCc5ccc(C6COC6)cc5Cl)n4)CC3)n(C[C@@H]3CCO3)c2c1` and `COc1cc(C2COC2)ccc1COc1cccc(C2CCN(Cc3nc4ccc(C(=O)O)cc4n3C[C@@H]3CCO3)CC2)n1` are within 1.5-fold of each other in half-life: 123 min for the first, 154 min for the second.

For `O=C(O)c1ccc2nc(CN3CCC(c4cccc(OCc5ccc(C6COC6)cn5)n4)CC3)n(C[C@@H]3CCO3)c2c1`, the half-life was 43 min.
